# Assay: gradient 5% acetonitrile 3 min, to 50% in 2 min, to 85% in 15 min, held 3 min, 100 µL/min
# Conditions: column: Zorbax Extend-C18 2.1 x 50 mm; eluents: water / acetonitrile, 0.1% formic acid
# In short: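 Each retention time is based on an adduct peak selected computationally and verified by manual inspection. Measurements used HPLC–quadrupole time-of-flight mass spectrometry in positive and negative ionization mode on mixtures of ~100 pure standards. Chromatography ran on a Zorbax Extend-C18 column (2.1 × 50 mm, 1.8 μm) at 100 μL/min with water and acetonitrile, each containing 0.1% formic acid, and dead and dwell volumes of 40 μL and 900 μL.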
row,Compound,RP-LC retention time [s]
1,COc1cccc(CNC(=O)C2(C)CCCN(C(=O)Nc3cccc(Br)c3)C2)c1 (centres undefined),993
2,CCc1cc(C(=O)NCCN2CCOCC2)nc2cc(-c3cccs3)nn12,670
3,Cc1ccc(C)c(N2CCN(c3ncc(S(=O)(=O)c4ccccc4)c(N)n3)CC2)c1,1230
4,CCN(CC)C(=O)c1cc(C)nc2c1c(=O)n(Cc1ccccc1C)c(=O)n2C,938
5,O=S(=O)(c1ccccc1Cl)N1CC(c2nc(Cc3ccccc3)no2)C1,951
6,O=C(NC1CC1)c1ccc(OCC2CCCN2C(=O)C2CCC2)cc1 (centres undefined),741
7,Cn1cc(CC(=O)NCC2CCCCC2)c2cccnc21,734
8,CS(=O)(=O)N1CCCN(C(=O)c2ccc(F)cc2)CC1,670
9,CN1C(=O)c2cccn2CC1CNC(=O)c1cccs1 (centres undefined),628
10,Cc1ccc(NC(=O)C2CC(=O)N(CCc3c[nH]c4ccc(Cl)cc34)C2)cc1 (centres undefined),884
11,Cc1ccc(-c2cn3c(CC(=O)NCc4ccccc4C)csc3n2)cc1C,859
12,Cc1oc2ncnc(N3CCOCC3)c2c1C(=O)N1CCN(c2ccccn2)CC1,567
13,Cc1nn2c(nnc3c(=O)n(CCc4c[nH]c5ccc(F)cc45)ccc32)c1-c1ccc(F)cc1,961
14,O=c1ccc(-c2ccccc2)nn1CCc1nc(-c2ccc(Cl)cc2)no1,1040
15,CS(=O)(=O)c1ccccc1C(=O)Nc1ccc2sccc2c1,757
16,Cc1c(C(=O)N(C)C)cc(-c2ccccc2)n1C,812
17,CC1=NS(=O)(=O)N(Cc2ccccc2)C=C1C(=O)OCc1noc(-c2cccc(F)c2)n1,1130
18,Cc1ccc(-c2cc3n(n2)CCCN(C(=O)Cc2ccccc2F)C3)cc1,939
19,Cc1noc2nc(CCC(=O)NCCCc3ccccc3)nc(N3CCCC3)c12,765
20,Cn1nnc2ccc(-c3noc(-c4ccccc4Br)n3)cc21,1030
21,O=C1CCCC(=O)C1CC1C(=O)CCCC1=O,836
22,COCCNC(=O)CS(=O)Cc1cnn(-c2ccccc2)c1-n1cccc1 (centres undefined),678
23,COCCn1cc(CCNC(=O)Nc2ccc(Br)cc2)c2cccnc21,778

row,Compound,RP-LC retention time [s]
1,CCC(C)NC(=O)c1ccc2c(c1)Sc1ncccc1C(=O)N2C(C)C (centres undefined),784
2,O=C(Cn1cccc(-c2nc(-c3ccccc3)no2)c1=O)Nc1ccccc1Br,898
3,CCn1c(C)c(C(C)=O)c2cc(OCC(O)CNC(C)c3ccccc3)ccc21 (centres undefined),590
4,O=c1ccn(-c2cccc(F)c2)nc1-c1nc(-c2cccc(F)c2)no1,906
5,Cc1noc(C)c1S(=O)(=O)N1CCC2(CC1)NCCc1c2[nH]c2ccccc12,588
6,COc1ccccc1C1C2=C(CC(C)(C)CC2=O)Nc2ccccc2N1C(=O)CCC(=O)O (centres undefined),699
7,CC(=O)c1cccc(NC(=O)Cn2c(-c3cnccn3)nc(C)c(C)c2=O)c1,650
8,CSc1cccc(NC(=O)N2CCC(c3cc(=O)n4nccc4n3C)CC2)c1,679
9,O=C(O)c1cn(Cc2ccccc2)c(=O)c2ccccc12,788
10,O=C(CN1c2ccc(F)cc2-c2ccccc2S1(=O)=O)Nc1ccc(F)cc1,948
11,COc1ncc(C(=O)NCc2ccc(OC)c(OC)c2)cn1,638
12,Cc1ccc(C(=O)N2CCC(n3nc(-c4ccsc4)ccc3=O)CC2)cc1,835
13,Cc1noc(CN2N=C(C(=O)N3CCC(C)CC3)S(=O)(=O)c3ccccc32)n1,826
14,CCC(NC(=O)C1CCN(c2cncnc2N2CCCCC2)CC1)c1cccs1 (centres undefined),706
15,CC(C)NC(=O)C1CCCN(c2nc3ncn(CC(=O)Nc4ccc(Cl)cc4)c(=O)c3s2)C1 (centres undefined),719
16,COc1ccc(-c2noc(COC(=O)C3=CN(Cc4ccccc4)S(=O)(=O)N=C3C)n2)cc1,1090
17,COC(=O)/C(=C1/OC(=O)C(c2ccccc2)=C1O)c1ccccc1,1130
18,Cc1ccccc1NC(=O)c1ccc(=O)n(CCN2CCCC2)c1,584
19,O=C(Nc1ccccc1F)N1CCC(CCNC(=O)C2(c3ccccc3)CC2)CC1,889
20,COc1cc(C(=O)Nc2ccc(C)cc2-c2nc3ccccc3[nH]c2=O)cc(OC)c1OC,772
21,COc1ccc(NS(=O)(=O)c2ccc(-c3c(C)noc3C)cc2)cc1,877
22,CCn1c(N2CCCC(C(=O)NCC3CCN(Cc4ccccc4C)CC3)C2)cc(=O)n(C)c1=O (centres undefined),643
23,O=C(Nc1nc(-c2ccccn2)cs1)c1ccc(N2CCOCC2)c([N+](=O)[O-])c1,631

row,Compound,RP-LC retention time [s]
1,COC(=O)c1cccc(NC(=O)C2CCc3nc(N4CCOCC4)ncc3C2)c1 (centres undefined),746
2,CCOCC(=O)N1CCCN(C2=NS(=O)(=O)C(c3ccc(F)cc3)=C2C)CC1,711
3,CCOC(=O)c1ccc2nc(C(F)(F)F)nc(NCCc3ccc(OC)c(OC)c3)c2c1,1140
4,COc1ccc(-n2ncc3c(=O)n(Cc4nc(-c5ccccc5OC)no4)cnc32)cc1,902
5,O=C(C1CC1)N1CCCC(OCc2nc(-c3ccncc3)no2)C1 (centres undefined),619
6,CC1CCN(S(=O)(=O)c2ccc(-c3nnc(C(=O)NCCCN4CCCC4=O)o3)cc2)CC1,792
7,COC(=O)c1sc2cccc(F)c2c1S(=O)(=O)N1CCN(c2ccccn2)CC1,725
8,CCCCOc1ccc(C(=O)Nc2ccc(F)cc2F)cc1,1130
9,CC(=O)N1CCc2sc(C(=O)N3CCN(c4ccc(Cl)cc4)CC3)cc2C1,837
10,CCOc1ccccc1C1NC(=O)N(CC(=O)N2CCN(c3ccc(F)cc3)CC2)C2=C1C(=O)OC2 (centres undefined),830
11,Cc1cccc(-c2noc(CN3C(=O)COc4cc(C)ccc43)n2)c1,1110
12,CC(C)NC(=O)c1ccc(OCC2CCN(C(=O)c3cccc(Cl)c3)CC2)cc1,899
13,CCCCCCC(C)OC(=O)c1ccccc1C(=O)O (centres undefined),1130
14,CCN1c2ccc(C)cc2C(=O)NC12CCN(C(=O)Cc1ccccc1)CC2,820
15,O=C1c2oc3ccccc3c(=O)c2C(c2cccnc2)N1c1nccs1 (centres undefined),708
16,O=C(CCn1nnc2cc(-c3noc(Cc4ccc(Br)cc4)n3)ccc21)N1CCOCC1,860
17,CCN(CC)CCOC(=O)C(c1ccccc1)C1CCCCC1 (centres undefined),882
18,CC(=O)N1CCc2sc(S(=O)(=O)N3CCN(c4ccccc4C)CC3)cc2C1,995
19,Cc1ccc(CNC(=O)C2CCN(c3nccnc3Sc3ccccc3)CC2)o1,958
20,COC(=O)c1c(C)[nH]c(C(=O)N2CCCC(C(=O)NCc3ccccn3)C2)c1C (centres undefined),577
21,CC(C)c1cccc(NC(=O)Cn2nc(N3CCCC3)c3ccccc3c2=O)c1,1090
22,Cc1cccc(NC(=O)C(=O)NCc2ccccn2)n1,565
23,CCOC(=O)COC(=O)c1cn(-c2cccc(OC)c2)c(=O)c2ccccc12,1010

row,Compound,RP-LC retention time [s]
1,O=C(Nc1cccnc1Cl)C1CCCN(c2ncnc3c2nc2n3CCCCC2)C1 (centres undefined),717
2,CN(C)c1nn(CC(=O)Nc2ccc(S(C)(=O)=O)cc2)cc1-c1ccccc1,786
3,Cc1ccc(Cn2nc3c(S(=O)(=O)N4CCc5ccccc5C4)cccn3c2=O)cc1,941
4,CCc1noc(-c2cccnc2N2CCCN(Cc3c(F)cccc3Cl)CC2)n1,668
5,CCNC(=O)NC1CCN(c2nc3ccccc3n(C)c2=O)CC1,676
6,CCc1nc2ccccc2c(=O)n1Cc1noc(COc2ccc(OC)cc2)n1,921
7,CC(C)COc1ccc(S(=O)(=O)N2CCOC(c3ccccc3)C2)cc1 (centres undefined),560
8,Cc1noc([C@@H]2CC(F)(F)CN2C(=O)c2cnc[nH]2)n1,582
9,COc1ccc(NC(=O)C2c3ccccc3C(=O)N3CCC(C)CC23)c(OC)c1 (centres undefined),867
10,CCn1cc(S(=O)(=O)N2CCCCC2c2nc(-c3cccnc3)n[nH]2)cn1 (centres undefined),615
11,CS(=O)(=O)c1ccccc1C(=O)Nc1nc(-c2cc(Cl)sc2Cl)cs1,1030
12,COCCN1C(=O)CCc2cc(NS(=O)(=O)c3ccccc3)ccc21,716
13,CC(=O)c1cccc(NC(=O)COc2ccccc2-c2nnc(-c3ccccc3)o2)c1,1190
14,CCCCNC(=O)NC1CCS(=O)(=O)C1 (centres undefined),571
15,COc1ccc(Br)cc1CNC(=O)CCC(=O)N1CCSc2nc(C)cc(C)c21,725
16,COc1ccccc1-c1csc(-c2nnn(-c3ccc(C)c(C)c3)c2N)n1,1220
17,CN(CCNC(=O)C1CCCN(c2nnc(-n3cccc3)s2)C1)C1CCCCC1 (centres undefined),650
18,CCOc1nccnc1N1CCC(NC(=O)Cc2cccs2)C1 (centres undefined),921
19,O=C(Cn1ncc2c(N3CCN(c4ccccn4)CC3)ncnc21)Nc1ccc(OC(F)(F)F)cc1,660
20,COc1cccc(NC(=O)C2CC(=O)N(c3ccc4c(c3)CCN4C(C)=O)C2)c1 (centres undefined),693
